Where a name gives a salt, the structure may show the parent alone. Read-outs that look alike come from different tables or passages of the source.
Key:
[1] = target: T1, human recombinant histamine H3R (Homo sapiens, UniProt Q9Y5N1); assay: hH3R radioligand binding ([3H]Nα-methylhistamine depletion assay); conditions: read-out: hH3R Ki [nM] x̄ [CI 95%]; mean [CI 95%]; HEK-293 cells
T1 construct: expressed in transfected cells

[2] = target: T2, sigma-1 receptor (σ1R) (Cavia porcellus, UniProt Q60492); assay: σ1R radioligand binding ([3H](+)-pentazocine); set-up: species or system guinea pig; conditions: read-out: σ1R Ki [nM] x̄ [CI 95%]; mean [CI 95%]
T2 construct: The thawed membrane preparation of the guinea pig brain cortex was incubated; from tissue; host or cells: male Dunkin-Hartley guinea pig brain cortex membranes
T2 sequence (Q60492 whole entry): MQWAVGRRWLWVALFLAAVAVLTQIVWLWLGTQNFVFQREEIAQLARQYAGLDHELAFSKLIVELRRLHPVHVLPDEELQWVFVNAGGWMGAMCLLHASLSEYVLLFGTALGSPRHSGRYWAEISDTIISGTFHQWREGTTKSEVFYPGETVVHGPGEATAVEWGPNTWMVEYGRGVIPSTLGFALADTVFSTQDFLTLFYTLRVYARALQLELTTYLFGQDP

[3] = system: sigma-1 receptor (σ1R); assay: σ1R radioligand binding ([3H](+)-pentazocine); set-up: species or system guinea pig; conditions: ratio of σ2R Ki to σ1R Ki
[4] = target: T3, sigma-2 receptor (σ2R) (Rattus norvegicus, UniProt Q5U3Y7); assay: σ2R radioligand binding ([3H]DTG); conditions: read-out: σ2R Ki [nM] x̄ [CI 95%]; mean [CI 95%]
T3 construct: The thawed membrane preparation of rat liver was incubated; from tissue; host or cells: Sprague-Dawley rat liver membranes
T3 sequence (Q5U3Y7 1-176): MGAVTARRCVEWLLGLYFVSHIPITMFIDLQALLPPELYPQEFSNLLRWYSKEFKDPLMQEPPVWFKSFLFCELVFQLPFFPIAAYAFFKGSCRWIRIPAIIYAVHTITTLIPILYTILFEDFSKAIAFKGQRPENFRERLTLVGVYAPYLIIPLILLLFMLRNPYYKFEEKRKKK

[5] = target: T4, human histamine H1 receptor (hH1R) (Homo sapiens, UniProt P35367); assay: hH1R radioligand binding ([3H]mepyramine); conditions: read-out: hH1R (Ki [nM] x̅ [CI 95%]); HEK293T cells; n = 3, triplicate
T4 construct: SP (signal peptide) (N); FLAG (N); expressed in transfected cells
T4 sequence (P35367 whole entry): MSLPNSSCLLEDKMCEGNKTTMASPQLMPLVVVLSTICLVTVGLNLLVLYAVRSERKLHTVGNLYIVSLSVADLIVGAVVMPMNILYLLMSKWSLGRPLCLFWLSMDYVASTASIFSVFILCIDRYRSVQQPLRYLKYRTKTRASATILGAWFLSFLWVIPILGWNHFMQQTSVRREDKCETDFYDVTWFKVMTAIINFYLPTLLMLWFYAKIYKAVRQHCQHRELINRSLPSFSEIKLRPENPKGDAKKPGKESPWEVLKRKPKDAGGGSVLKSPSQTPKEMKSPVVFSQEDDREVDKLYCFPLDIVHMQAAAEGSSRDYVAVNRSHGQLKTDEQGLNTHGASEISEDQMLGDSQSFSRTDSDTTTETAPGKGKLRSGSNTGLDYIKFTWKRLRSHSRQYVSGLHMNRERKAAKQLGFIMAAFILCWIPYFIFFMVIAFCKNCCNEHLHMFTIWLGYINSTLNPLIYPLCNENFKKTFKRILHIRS
Procedure: (§1) To check the selectivity profile of our lead structures, radioligand binding studies at other histamine receptor subtypes were carried out. […] Obtained results clearly indicate the high selectivity of the tested derivatives toward human H3R (Table 3).
(§2) Compounds (as oxalate salts) were tested in H3R in vitro binding studies using the methods described previously.[21]−[23] […] Radioligand binding experiments at the H1R, H2R, and H4R were performed as previously described in Rosier et al.[65] and Bartole et al.[66] […] Data represent mean values ± CI from three independent experiments, each performed in triplicate. The normalized competition binding curves were then fitted with a four-parameter logistic fit yielding IC50 values using the Prism 8.4.3 software (GraphPad, San Diego, CA). The Ki values were estimated from the Cheng–Prusoff equation.[69]

[6] = target: T5, human histamine H2 receptor (hH2R) (Homo sapiens, UniProt P25021); assay: hH2R radioligand binding ([3H]UR-DE257); conditions: HEK293T cells, n = 3, triplicate
T5 construct: SP (signal peptide) (N); FLAG (N); expressed in transfected cells
T5 sequence (P25021 whole entry): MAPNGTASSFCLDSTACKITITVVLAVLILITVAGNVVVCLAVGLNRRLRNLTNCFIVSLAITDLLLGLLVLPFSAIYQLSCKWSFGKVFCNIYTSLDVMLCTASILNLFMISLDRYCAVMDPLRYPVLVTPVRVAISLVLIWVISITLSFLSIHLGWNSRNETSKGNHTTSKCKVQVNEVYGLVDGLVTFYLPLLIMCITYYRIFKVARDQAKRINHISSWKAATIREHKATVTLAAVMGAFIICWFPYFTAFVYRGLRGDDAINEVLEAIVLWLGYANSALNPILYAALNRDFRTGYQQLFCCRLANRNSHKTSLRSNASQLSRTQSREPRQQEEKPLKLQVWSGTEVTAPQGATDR
Procedure: as §1, §2

[7] = target: T6, human histamine H4 receptor (hH4R) (Homo sapiens, UniProt Q9H3N8); assay: hH4R radioligand binding ([3H]UR-PI294); conditions: read-out: hH4R (Ki [nM] x̅ [CI 95%]); HEK293T cells; n = 3, triplicate
T6 construct: SP (signal peptide) (N); FLAG (N); expressed in transfected cells
T6 sequence (Q9H3N8 whole entry): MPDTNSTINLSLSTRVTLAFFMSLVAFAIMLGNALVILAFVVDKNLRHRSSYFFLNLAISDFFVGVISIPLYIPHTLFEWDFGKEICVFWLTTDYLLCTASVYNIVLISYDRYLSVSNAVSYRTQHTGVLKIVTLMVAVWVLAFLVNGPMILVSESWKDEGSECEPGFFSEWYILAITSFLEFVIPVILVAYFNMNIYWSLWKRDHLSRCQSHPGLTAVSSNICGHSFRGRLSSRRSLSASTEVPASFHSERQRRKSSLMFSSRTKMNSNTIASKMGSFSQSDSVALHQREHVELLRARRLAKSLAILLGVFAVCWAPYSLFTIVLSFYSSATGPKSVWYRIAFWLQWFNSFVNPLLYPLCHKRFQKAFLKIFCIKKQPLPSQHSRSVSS
Procedure: as §1, §2

[8] = parallel artificial membrane permeability assay (PAMPA); assay type: in vitro ADME; conditions: 100 μM in PBS pH 7.4, RT, read-out: Pe (permeability coefficient)
[9] = system: mice; assay: spontaneous locomotor activity; assay type: in vivo; conditions: 15 mg/kg i.p.
Procedure: The high sedative activity of analgesics is considered an undesirable property, which may lead to an incorrect or ambiguous interpretation of the in vivo results. Moreover, it may limit the potential clinical application of new drug candidates.
This test was carried out according to the procedure described elsewhere.[84] The animals were injected (i.p.) with 12 at doses of 5, 15, and 30 mg/kg and placed in the activity cages individually (30 min before the experiment). The number of light-beam crossings was counted in each group during the next 30 min in 10 min intervals.

[10] = system: mice; assay: motor coordination in the rotarod test; assay type: in vivo; conditions: 15 mg/kg i.p.; 6, 18 and 24 rpm
From the text: The neurotoxicity of the new compounds can result in impaired motor functions of the experimental animals, which may subsequently cause false interpretation of the results of in vivo tests. Understandably, neurotoxicity is also the frequent reason for eliminating the tested compound from further studies. To minimize that risk, we investigated the influence of our lead structures on motor coordination in the rotarod test, which is the classical test used for assessing motor coordination and balance in rodents. It provides a quick and simple estimation of neuromuscular coordination. […] The time spent on the rotarod apparatus was 60 s for each control mouse.
The test was carried out on the semiautomatic rotarod apparatus (Rotarod apparatus Panlab/Harvard Apparatus, LE 8200, Spain) according to the method previously described in the literature.[85] The mice were trained for 3 days on the rod rotating at a constant speed of 18 rotations per minute (rpm). During each training session, the animals were placed on the rod for 3 min with an unlimited number of trials. On the test day (24 h after the final training trial), 30 min before the rotarod test, the mice were pretreated (i.p.) with the test compound (15 mg/kg). Then, the animals were tested on the rotarod revolving at 6, 18, and then 24 rpm. Motor impairments, defined as the inability to remain on the rotating rod for 1 min, were measured at each speed.

[11] = system: mice; assay: formalin test; assay type: in vivo; conditions: for ED50: Mus musculus, ip
From the text: The formalin test is one of the most useful screening models for testing potentially clinically relevant antinociceptive molecules because of its ease of administration, standardization, and validation with reference drugs.[50] The subcutaneous injection of formalin results in a focal injury that stimulates and then damages sensory endings. Two distinct phases of nociceptive response are associated with the immediate activation of nociceptors and sensitization of spinal reflex circuits during phase I and II responses, respectively.[51]
The procedure used was essentially the same as that described previously.[86],[87] Briefly, 20 μL of 1.5% formalin solution was injected intraplantarly (i.pl.) into the mice right hind paw using a 26-gauge needle. […] The total time (in seconds) spent on licking the injected paw during periods of 0–5 min (early phase, neurogenic) and 15–30 min (late phase, inflammatory) was measured and was considered as an indicator of nociceptive behavior. Before formalin injection, different groups of mice were treated i.p. with the vehicle (10 mL/kg, negative control) and the varying doses of 12 (5, 10, 15, and 30 mg/kg).

[12] = target: T1, human recombinant histamine H3R; conditions: read-out: hH3R Ki [nM] x̄ [CI 95%]; mean [CI 95%]; recalculated from published data; cited from earlier work
[13] = system: mice; assay: loperamide-induced antinociception (paw pressure, struggle response latency); assay type: in vivo, Female CD1 mice
[14] = target: H3R; set-up: method as in PMID 30359639; conditions: Figure 1, compounds evaluated in clinical trials; cited from earlier work
[15] = pKa determination by potentiometric titration; assay type: physicochemical; conditions: for pKa: aqueous solution
Procedure: In addition, we tested the amino alcohol fragments of these compounds to carefully monitor the influence of individual protonated nitrogen atoms on the obtained pKa values (Figure 4). […] Based on a previously modified potentiometric procedure,[27],[28] a series of titrations were performed, and the pKa values were determined using the Kostrowicki and Liwo algorithm.[29],[30] […] That explains the surprising result of free base crystallization attempts where iodide salt was obtained instead of the neutral form. On the other hand, in the same environment, KSK94 exists in two forms: the monoprotonated form [HL^+] (20.56%) and the free ligand [L] (77.72%, Figure 5). […] KSK68 can be characterized as a basic ligand with pKa1 = 4.9 (pyridine N) and pKa2 = 8.4 (piperidine N). The pKa values are consistent with those determined by the same procedure for the corresponding amino alcohol 3-(4-(pyridin-4-yl)piperidin-1-yl)propan-1-ol (Figure 4). […] A similarly low pKa2 value for the N7 piperazine nitrogen atom was also determined for the corresponding amino alcohol 3-(4-(pyridin-4-yl)piperazin-1-yl)propan-1-ol (Figure 4), which is in agreement with the value obtained for 1-phenyl-4-methyl piperazine reported in the literature.[31] […] The lowest value was determined for 4-nitrophenyl, and the highest was for 2-methylphenyl derivatives.[32]
The potentiometric microtitration was performed in a thermostated 20 mL cell using a CerkoLab microtitration unit fitted with a pH electrode (Hydromet ERH-13-6). The electrode was calibrated with the use of buffer solutions: pH = 4.00, 7.00, and 10.00. Titrant T (0.1 M KOH) was standardized according to the general analytical procedure and protected from carbon dioxide. Double distilled water with a conductivity of about 0.18 mS/cm was used to prepare all aqueous solutions. DMSO (HPLC grade, 99.5%) was supplied by Sigma Aldrich. The concentration of the titrant solution (D) was 0.0025–0.005 M. The solubilization procedure was follows: The appropriate amount of KSK compound was dissolved in 1 mL 0.1 M HCl and 1 mL DMSO to prepare a 25 mL stock solution. The developed solubilization system can be recommended for poorly soluble derivatives. The analytical procedure was a follows: volume V0 = 4.5 mL of titrant D was titrated with 0.1 M titrant T using the CerkoLab System equipped with a 5 mL syringe pump.

[16] = observation during crystallization
[17] = 0–5 min after formalin, read-out: ED50, formalin test phase I (acute phase)
[18] = 15–30 min after formalin, read-out: ED50, formalin test phase II (late phase)
[19] = Figure 5, species distribution from titration curves
[20] = experimental, potentiometric titration

T1 sequence (Q9Y5N1 whole entry): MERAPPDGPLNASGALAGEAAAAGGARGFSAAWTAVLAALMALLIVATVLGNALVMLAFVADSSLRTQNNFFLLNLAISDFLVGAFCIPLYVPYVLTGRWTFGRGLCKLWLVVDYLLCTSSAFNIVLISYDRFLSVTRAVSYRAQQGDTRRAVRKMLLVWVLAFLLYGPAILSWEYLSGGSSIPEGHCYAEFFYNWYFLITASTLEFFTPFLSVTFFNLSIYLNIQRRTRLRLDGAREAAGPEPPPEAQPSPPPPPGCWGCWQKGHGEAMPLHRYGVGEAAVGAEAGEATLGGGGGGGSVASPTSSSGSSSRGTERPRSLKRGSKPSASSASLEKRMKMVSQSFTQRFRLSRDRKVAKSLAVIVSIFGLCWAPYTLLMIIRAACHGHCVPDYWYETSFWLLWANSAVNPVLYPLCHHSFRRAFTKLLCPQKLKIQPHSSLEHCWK

Question: What does the source list for `c1ccc(-c2ccc(OCCCN3CCCCCC3)cc2)cc1` [Compound 3, 1-(3-([1,1′-Biphenyl]-4-yloxy)propyl)azepane Oxalate]?
Answer: Ki [1]: 4.3 nM; Ki [2]: 1.9 nM; σ2/σ1 ratio [3]: 13.2; Ki [4]: 25 nM; Ki [5]: 7620 nM; Ki ([6]; read-out: hH2R (Ki [nM] x̅ [CI 95%])): > 10000 nM; Ki [7]: > 10000 nM; Papp at 5 h, 100 µM [8]: 6.57 ×10⁻⁶ cm/s; influence on spontaneous locomotor activity (sedative effect) [9]: high and significant sedative effects; influence on motor coordination, time on rotarod [10]: significantly impaired the motor coordination of mice; ED50 [11, 17]: 14.2 mg/kg; ED50 [11, 18]: 13.3 mg/kg

Question: For `c1ccc(Nc2ccc(OCCCN3CCCCC3)cc2)cc1` [Compound 7, N-Phenyl-4-(3-(piperidin-1-yl)propoxy)aniline Oxalate], which Ki [1] is on record?
Answer: 5.2 nM

Question: And the Ki [2]?
Answer: 4.8 nM

Question: And the σ2/σ1 ratio [3]?
Answer: 24.2

Question: And the Ki [4]?
Answer: 116 nM

Question: And the Ki [5]?
Answer: > 10000 nM

Question: And the Ki [6]?
Answer: > 10000 nM

Question: And the Ki [7]?
Answer: > 10000 nM

Question: What about the Papp at 5 h, 100 µM [8] of the same compound?
Answer: 10.6 ×10⁻⁶ cm/s

Question: What about the “influence on spontaneous locomotor activity (sedative effect)” value [9] of the same compound?
Answer: high and significant sedative effects

Question: And the “influence on motor coordination, time on rotarod” value [10]?
Answer: significantly decreased the time spent on the rod at 18 and 24 rpm

Question: What about the ED50 [11, 17] of the same compound?
Answer: 11.9 mg/kg

Question: What about the ED50 [11, 18] of the same compound?
Answer: 11.7 mg/kg

Question: And the “ED50, formalin test phase I (acute phase)” value ([11]; i.p., 0–5 min after formalin)?
Answer: 11.95 mg/kg

Question: And the “ED50, formalin test phase II (late phase)” value ([11]; i.p., 15–30 min after formalin)?
Answer: 11.71 mg/kg

Question: For `c1ccc(-c2ccc(OCCCCCN3CCCCC3)cc2)cc1` [Compound 10, 1-(5-([1,1′-Biphenyl]-4-yloxy)pentyl)piperidine Oxalate], which Ki [2] is on record?
Answer: 140 nM

Question: And the Ki [4]?
Answer: 19 nM

Question: And the Ki [12]?
Answer: 21.7 nM

Question: Which results are given for `c1ccc(-c2ccc(OCCCCCCN3CCCCC3)cc2)cc1` [Compound 11, 1-(6-([1,1′-Biphenyl]-4-yloxy)hexyl)piperidine Oxalate]?
Answer: Ki [2]: 118 nM; Ki [4]: 46 nM; Ki [12]: 88.9 nM

Question: For `Cc1cc(OCCN2CCOCC2)nn1-c1ccc2ccccc2c1` [Compound S1RA, 4-[2-[[5-methyl-1-(2-naphthalenyl)1H-pyraol-3-yl]oxy]ethyl]morpholine hydrochloride], which Papp at 5 h, 100 µM [8] is on record?
Answer: 5.26 ×10⁻⁶ cm/s

Question: What about the “in vivo σ1 receptor functional profile” value ([13]; concluded from PRE-084 reversal) of the same compound?
Answer: σ1 receptor antagonists

Question: What about the “effect on loperamide-induced antinociception” value ([13]; i.pl. with loperamide 4 mg/kg s.c., injected paw) of the same compound?
Answer: significantly and dose-dependently (50–100 μg) increased the antinociceptive effect induced by loperamide

Question: What about the “effect alone on struggle response latency” value ([13]; i.pl., S1RA 100 μg, 12 25 μg, 450 g pressure) of the same compound?
Answer: did not change the response to the mechanical stimulus

Question: What about the Ki [14] of the same compound?
Answer: > 10000 nM

Question: For `c1cc(OCCCN2CCCCC2)ccc1CN1CCCCC1` [JNJ-5207852], which Ki [14] is on record?
Answer: 0.3 nM

Question: Which “pK of equilibrium H2L+2 = H+ + HL+” value [15, 19] does the source give for `O=C(c1ccc(OCCCN2CCC(c3ccncc3)CC2)cc1)C1CC1` [KSK68] here?
Answer: 4.94

Question: What about the “pK of equilibrium HL+ = H+ + L0” value [15, 19] of the same compound?
Answer: 8.38

Question: And the “monoprotonated form [HL+]” value ([15]; aqueous solution at physiological pH)?
Answer: approximately 90%

Question: What about the pKa ([15]; experimental, potentiometric titration, read-out: pKa1) of the same compound?
Answer: 4.9

Question: And the pKa ([15]; experimental, potentiometric titration, read-out: pKa2)?
Answer: 8.4

Question: What about the pKa1 [15, 20] of the same compound?
Answer: 4.94

Question: And the pKa2 [15, 20]?
Answer: 8.38

Question: And the solubility in water [16]?
Answer: more soluble in H2O than KSK67
